# Measured values reported in PMC3242434 (Bioorganic & medicinal chemistry letters, 2011).
# Assays:
# [1] = test system: Hsp90; test: Western blot analyses of Hsp90 client protein degradation in MCF-7 cells; type: cell-based
# [2] = test system: MCF7 breast cancer cell-line; test: Anti-proliferative activity against MCF7 breast cancer cell-line; type: cell-based; conditions: Homo sapiens, MCF7, read-out: IC50 against MCF-7
SMILES,Hsp90 client protein degradation [1],Hsp90 induction (heat shock response) [1],IC50 [2] [µM]
COc1ccc(Cc2ccc3cc(NC(=O)c4ccc(OC(C)=O)c(CC=C(C)C)c4)c(=O)oc3c2C)cc1 [Compound 43],client protein degradation was observed,no Hsp90 induction was seen,
COc1ccc(Oc2ccc3cc(NC(=O)c4ccc(O)c(CC=C(C)C)c4)c(=O)oc3c2C)cc1 [Compound 14],client protein degradation was observed,no Hsp90 induction was seen,
COc1ccc(Cc2ccc3cc(NC(=O)c4ccc(O)c(CC=C(C)C)c4)c(=O)oc3c2C)cc1OC [Compound 48],,,~13
